Reference: ChEMBL document CHEMBL5584241, “Discovery of new anti-diabetic potential agents based on paracetamol incorporating sulfa-drugs: Design, synthesis, α-amylase, and α-glucosidase inhibitors with molecular docking simulation” (Eur J Med Chem, 2024)

Columns and labels:
[1] = Inhibition of alpha-glucosidase (unknown origin); set-up: species or system Homo sapiens
Alpha amylase = target: T1, Alpha amylase (Homo sapiens, UniProt P0DUB6); assay: Inhibition of alpha-amylase (unknown origin); format: protein assay
T1 sequence (P0DUB6 whole entry): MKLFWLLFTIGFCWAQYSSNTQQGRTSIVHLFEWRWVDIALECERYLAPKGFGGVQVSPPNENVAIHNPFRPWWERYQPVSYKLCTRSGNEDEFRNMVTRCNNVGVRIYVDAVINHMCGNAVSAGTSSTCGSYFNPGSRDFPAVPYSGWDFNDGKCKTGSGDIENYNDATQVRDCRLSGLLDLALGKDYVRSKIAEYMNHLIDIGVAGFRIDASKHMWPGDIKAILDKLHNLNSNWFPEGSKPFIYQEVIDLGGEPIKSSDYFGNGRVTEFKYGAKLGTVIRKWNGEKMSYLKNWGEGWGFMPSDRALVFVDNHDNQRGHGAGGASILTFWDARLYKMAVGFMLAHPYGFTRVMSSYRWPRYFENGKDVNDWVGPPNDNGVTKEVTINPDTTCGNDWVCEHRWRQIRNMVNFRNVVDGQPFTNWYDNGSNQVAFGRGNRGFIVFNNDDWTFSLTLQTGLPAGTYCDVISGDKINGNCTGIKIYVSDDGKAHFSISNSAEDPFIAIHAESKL

Homo sapiens = species: Homo sapiens; assay: Inhibition of alpha-glucosidase (unknown origin) at 100 ug/ml using p-nitrophenyl-alpha-D-glucopyranoside as substrate incubated for 15 to 25 mins by spectrophotometric analysis relative to control; details: dose 100.0 µg/ml, time 15-25 min
[2] = Inhibition of alpha-glucosidase (unknown origin) using p-nitrophenyl-alpha-D-glucopyranoside as substrate incubated for 15 to 25 mins by spectrophotometric analysis; set-up: species or system Homo sapiens
Maltase-glucoamylase = Maltase-glucoamylase (Homo sapiens, UniProt O43451); assay: Inhibition of intestinal alpha-glucosidase (unknown origin) using p-nitrophenyl-alpha-D-glucopyranoside as substrate preincubated for 5 mins followed by substrate addition and measured after 5 mins by spectrophotometric analysis
Sequence of Maltase-glucoamylase (O43451 whole entry): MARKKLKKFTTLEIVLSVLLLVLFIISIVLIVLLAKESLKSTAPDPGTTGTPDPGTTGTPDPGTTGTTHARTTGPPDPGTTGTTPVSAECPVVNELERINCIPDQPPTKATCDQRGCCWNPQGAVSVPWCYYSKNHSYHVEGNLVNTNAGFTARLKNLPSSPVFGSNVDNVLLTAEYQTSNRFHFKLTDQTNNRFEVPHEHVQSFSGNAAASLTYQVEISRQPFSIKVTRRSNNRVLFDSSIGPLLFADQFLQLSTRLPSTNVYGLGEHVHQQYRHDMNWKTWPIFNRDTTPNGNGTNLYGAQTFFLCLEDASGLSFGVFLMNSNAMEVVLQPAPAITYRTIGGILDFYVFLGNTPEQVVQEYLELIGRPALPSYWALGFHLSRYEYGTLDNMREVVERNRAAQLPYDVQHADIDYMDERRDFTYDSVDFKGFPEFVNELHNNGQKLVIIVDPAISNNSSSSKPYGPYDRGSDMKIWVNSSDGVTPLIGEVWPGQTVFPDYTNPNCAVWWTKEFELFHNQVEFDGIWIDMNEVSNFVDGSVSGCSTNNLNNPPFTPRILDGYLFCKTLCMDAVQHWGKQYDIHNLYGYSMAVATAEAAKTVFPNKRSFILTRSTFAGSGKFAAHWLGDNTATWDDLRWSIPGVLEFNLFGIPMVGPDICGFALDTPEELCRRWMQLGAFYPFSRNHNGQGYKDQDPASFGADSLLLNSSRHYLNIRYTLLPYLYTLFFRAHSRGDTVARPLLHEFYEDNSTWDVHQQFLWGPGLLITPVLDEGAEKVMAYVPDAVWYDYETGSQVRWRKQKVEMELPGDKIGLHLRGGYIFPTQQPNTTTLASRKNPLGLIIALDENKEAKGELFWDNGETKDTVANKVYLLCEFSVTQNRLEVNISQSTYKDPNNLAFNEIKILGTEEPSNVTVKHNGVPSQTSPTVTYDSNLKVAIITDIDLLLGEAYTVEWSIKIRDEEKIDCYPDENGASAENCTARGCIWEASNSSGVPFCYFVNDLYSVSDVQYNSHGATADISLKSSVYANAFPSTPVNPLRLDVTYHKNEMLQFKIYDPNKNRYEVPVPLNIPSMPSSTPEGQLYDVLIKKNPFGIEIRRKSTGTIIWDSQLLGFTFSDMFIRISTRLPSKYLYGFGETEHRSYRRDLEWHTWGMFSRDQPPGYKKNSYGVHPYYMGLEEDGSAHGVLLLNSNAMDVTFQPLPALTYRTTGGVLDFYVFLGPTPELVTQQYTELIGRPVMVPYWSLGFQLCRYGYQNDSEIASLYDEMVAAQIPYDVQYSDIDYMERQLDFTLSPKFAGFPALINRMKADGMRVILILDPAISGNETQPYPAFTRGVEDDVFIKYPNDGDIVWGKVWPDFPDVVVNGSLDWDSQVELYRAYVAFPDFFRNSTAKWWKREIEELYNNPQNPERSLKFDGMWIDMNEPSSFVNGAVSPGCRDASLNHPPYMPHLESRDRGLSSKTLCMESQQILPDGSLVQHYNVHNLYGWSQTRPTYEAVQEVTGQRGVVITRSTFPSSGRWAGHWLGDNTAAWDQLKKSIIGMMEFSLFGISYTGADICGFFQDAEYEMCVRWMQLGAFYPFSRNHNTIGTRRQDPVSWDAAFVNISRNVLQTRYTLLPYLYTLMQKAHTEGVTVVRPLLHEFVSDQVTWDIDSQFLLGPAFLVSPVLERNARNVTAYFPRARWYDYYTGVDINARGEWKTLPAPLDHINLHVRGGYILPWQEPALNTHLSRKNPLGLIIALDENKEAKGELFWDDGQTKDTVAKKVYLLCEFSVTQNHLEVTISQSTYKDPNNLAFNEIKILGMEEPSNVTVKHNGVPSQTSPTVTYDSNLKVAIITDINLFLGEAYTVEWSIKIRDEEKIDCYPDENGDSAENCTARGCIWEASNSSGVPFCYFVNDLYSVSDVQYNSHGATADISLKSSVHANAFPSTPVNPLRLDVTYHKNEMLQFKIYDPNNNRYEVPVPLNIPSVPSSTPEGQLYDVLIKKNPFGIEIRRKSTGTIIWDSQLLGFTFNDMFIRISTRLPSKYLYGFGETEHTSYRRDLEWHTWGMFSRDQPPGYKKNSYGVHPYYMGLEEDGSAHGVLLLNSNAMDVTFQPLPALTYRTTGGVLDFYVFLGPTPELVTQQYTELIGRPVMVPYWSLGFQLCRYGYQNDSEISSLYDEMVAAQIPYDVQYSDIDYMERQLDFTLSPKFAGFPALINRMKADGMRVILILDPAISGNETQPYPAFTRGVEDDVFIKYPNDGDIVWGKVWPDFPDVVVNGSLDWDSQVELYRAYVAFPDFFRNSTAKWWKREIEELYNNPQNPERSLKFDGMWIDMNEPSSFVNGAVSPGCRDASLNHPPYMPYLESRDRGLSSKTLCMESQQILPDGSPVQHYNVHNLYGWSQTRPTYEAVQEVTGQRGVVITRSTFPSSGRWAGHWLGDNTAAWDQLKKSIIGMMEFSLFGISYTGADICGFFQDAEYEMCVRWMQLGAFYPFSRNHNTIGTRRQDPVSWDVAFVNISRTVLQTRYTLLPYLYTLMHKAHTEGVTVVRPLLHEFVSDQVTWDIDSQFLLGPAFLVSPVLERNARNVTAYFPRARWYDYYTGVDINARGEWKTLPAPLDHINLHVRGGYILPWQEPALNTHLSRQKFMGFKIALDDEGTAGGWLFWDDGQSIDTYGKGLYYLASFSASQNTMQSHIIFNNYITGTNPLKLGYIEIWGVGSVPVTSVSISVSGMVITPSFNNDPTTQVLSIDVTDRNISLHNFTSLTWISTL

| SMILES | IC50 [1] | IC50 (Alpha amylase) | inhibition (Homo sapiens) | IC50 [2] | IC50 (Maltase-glucoamylase) |
| --- | --- | --- | --- | --- | --- |
| O=[N+]([O-])c1ccc(-c2nnc(NS(=O)(=O)c3ccc(Cl)c(Cl)c3)s2)cc1 | 5.5 µM |  |  |  |  |
| COc1ccccc1S(=O)(=O)Nc1nnc(-c2ccc([N+](=O)[O-])cc2)s1 |  | 2.4 µM |  |  |  |
| CC(=O)Nc1ccc(O)c(/N=N/c2ccc(S(=O)(=O)Nc3nccs3)cc2)c1 |  |  | 93.4% | 44.1 µM |  |
| CC(=O)Nc1ccc(O)c(/N=N/c2ccc(S(=O)(=O)Nc3cc(C)on3)cc2)c1 |  |  | 92.6% | 18.3 µM |  |
| CC(=O)Nc1ccc(O)c(/N=N/c2ccc(S(N)(=O)=O)cc2)c1 |  |  | 93.6% | 11 µM |  |
| O=S(=O)(NCCc1c[nH]c2ccccc12)c1cc(F)ccc1Cl |  |  |  |  | 1.6 µM |
| CC(=O)Nc1ccc(O)c(/N=N/c2ccc(S(=O)(=O)Nc3ccc(Cl)nn3)cc2)c1 |  |  | 94.2% | 19.1 µM |  |
| CC(=O)Nc1ccc(O)c(/N=N/c2ccc(S(=O)(=O)Nc3noc(C)c3C)cc2)c1 |  |  | 95.6% | 2.95 µM |  |
| CC(=O)Nc1ccc(O)c(/N=N/c2ccc(S(=O)(=O)Nc3nc(C)cc(C)n3)cc2)c1 |  |  | 94.1% | 5.13 µM |  |
| CC(=O)Nc1ccc(O)c(/N=N/c2ccc(S(=O)(=O)NC(=N)N)cc2)c1 |  |  | 91% | 96.5 µM |  |
| C[C@H]1O[C@H](O[C@H]2[C@H](O)[C@@H](O)[C@@H](O[C@H]3[C@H](O)[C@@H](O)C(O)O[C@@H]3CO)O[C@@H]2CO)[C@H](O)[C@@H](O)[C@@H]1N[C@H]1C=C(CO)[C@@H](O)[C@H](O)[C@H]1O (stereo partly specified) [ACARBOSE] |  |  | 95.8% | 1.24 µM |  |
| CC(=O)Nc1ccc(O)c(/N=N/c2ccc(S(=O)(=O)Nc3ncccn3)cc2)c1 |  |  | 95.7% | 1.39 µM |  |
